Experimental data taken from patent US12570612B2, “Substituted nitrogen heterocyclic compound and anesthetic effect thereof” (priority 2019, dated 2026).
Read-outs that look alike come from different tables or passages of the source.

Key:
[1] = system: Sprague-Dawley rats; format: in vivo; conditions: tail vein
[2] = system: Sprague-Dawley rats; assay: Pharmacological effect and adverse reactions under the equivalent dose (2ED50), Group D compounds; format: in vivo; conditions: for Righting reflex duration / Sedation duration / Onset time: 2ED50, tail vein, rats, n=8; for Adverse reaction: Convulsions / Adverse reaction: Cough, broken-winded / Adverse reaction: Euphoria / Adverse reaction: Four limbs rigidity / Adverse reaction: Red urine / Adverse reaction: Slower breathing, Tetany convulsion / Adverse reaction: Systemic stiffness, Convulsions, Opisthotonus / Adverse reaction: Tongue stretching / Adverse reaction: Tremor: equivalent dose (2 × ED50), number of rats of n = 8
Text: (§1) Evaluation index: onset time: from the completion of drug injection to the disappearance of forepaw righting reflex in rats; Duration of anesthesia: the time from the disappearance of rat forepaw righting reflex to the recovery of rat forepaw righting reflex; Recovery time of anesthesia: the time from the […] to complete recovery;

[3] = system: Sprague-Dawley rats; assay: animal or person; format: in vivo; conditions: rats; for ED50: LORR, up and down method, tail vein, class symbols
Text: (§2) Evaluating indicator: The end point of anesthesia: the disappearance of forepaw righting reflex (lorr) was used as the end point of anesthesia; General anesthesia effect: the disappearance of forepaw righting reflex in rats lasting for 30 seconds is taken as the index of general anesthesia effect; Anesthesia recovery index: the recovery of rat forepaw righting reflex was used as the index of anesthesia recovery.

[4] = system: Sprague-Dawley rats; assay: Pharmacological effect and adverse reactions under the equivalent dose (2ED50), Group C compounds; format: in vivo
Text: as §1

[5] = system: Sprague-Dawley rats; assay: animal or person; format: in vivo; conditions: rats
Text: as §2, with “LORR” for “the disappearance of forepaw righting reflex (lorr)”

[6] = system: Sprague-Dawley rats; format: in vivo; conditions: tail vein; remark: listed apart in the source
[7] = system: SD rats
Procedure: Experimental Methods: Adult male SD rats with body weight ranging from 250 g to 350 g were selected for continuous infusion test.
Evaluation indexes: the time from the beginning of continuous infusion to the […] of sedation in rats; the time from the cessation of infusion to the restoration of the forepaw turning reflex after 1 hour of continuous infusion; the time from the cessation of infusion to the complete restoration of rats after 1 hour of continuous infusion.

[8] = Rattus norvegicus, read-out: ED50
[9] = equivalent dose (2ED50), number of rats of n = 8
[10] = after 1 hour continuous infusion at 2 times the MIR, SD rats
[11] = continuous infusion 2 x MIR 1 hour, rats affected/rats

## C#CCOCC(OC)(OC)C(=O)c1cncn1[C@H](C)c1ccccc1 [Compound D74]
[1]
  Minimal lethal dose: >10.2 mg/kg
[2]
  Righting reflex duration: 1.29 ± 0.49 min
  Sedation duration: 4.78 ± 1.24 min
  Adverse reaction: Convulsions: 0
  Adverse reaction: Cough, broken-winded: 0
  Adverse reaction: Euphoria: 0
  Adverse reaction: Four limbs rigidity: 1
  Adverse reaction: Red urine: 8
  Adverse reaction: Slower breathing, Tetany convulsion: 0
  Adverse reaction: Systemic stiffness, Convulsions, Opisthotonus: 0
  Adverse reaction: Tongue stretching: 0
  Adverse reaction: Tremor: 1
[2]; unit min
  Onset time: <1 min
[3]
  ED50: +++++ (+++++ indicates that the measured ED50 is greater than 6.00 mg/kg (excluding 6.00 mg/kg))
  Approximate therapeutic index: >16.6

## COC(OC)(OCC(C)(C)C)C(=O)c1ccnn1[C@H](C)c1ccccc1 [Compound D6]
[1]
  Minimal lethal dose: >12.4 mg/kg
[2]
  Righting reflex duration: 1.33 ± 0.19 min
  Sedation duration: 7.35 ± 1.45 min
  Adverse reaction: Convulsions: 0
  Adverse reaction: Cough, broken-winded: 0
  Adverse reaction: Euphoria: 0
  Adverse reaction: Four limbs rigidity: 1
  Adverse reaction: Red urine: 8
  Adverse reaction: Slower breathing, Tetany convulsion: 0
  Adverse reaction: Systemic stiffness, Convulsions, Opisthotonus: 0
  Adverse reaction: Tongue stretching: 0
  Adverse reaction: Tremor: 2
[2]; unit min
  Onset time: <1 min
[3]; [8]
  ED50: 2 to 6 mg/kg
[3]
  Approximate therapeutic index: >7.3

## COC(=O)C(=O)c1cncn1[C@H](C)c1ccccc1 [Compound D80]
[1]
  Minimal lethal dose: >12.2 mg/kg
[2]
  Righting reflex duration: 1.58 ± 0.61 min
  Sedation duration: 6.42 ± 1.68 min
  Adverse reaction: Convulsions: 0
  Adverse reaction: Cough, broken-winded: 0
  Adverse reaction: Euphoria: 0
  Adverse reaction: Four limbs rigidity: 4
  Adverse reaction: Red urine: 8
  Adverse reaction: Slower breathing, Tetany convulsion: 0
  Adverse reaction: Systemic stiffness, Convulsions, Opisthotonus: 0
  Adverse reaction: Tongue stretching: 0
  Adverse reaction: Tremor: 0
[2]; unit s
  Onset time: <0.5 min
[3]; [8]
  ED50: > 6 mg/kg
[3]
  Approximate therapeutic index: >2.9

## CCSC(OC)(OC)C(=O)c1ccnn1[C@H](C)c1ccccc1 [Compound D2]
[1]
  Minimal lethal dose: >10.5 mg/kg
[2]
  Righting reflex duration: 5.82 ± 1.87 min
  Sedation duration: 13.71 ± 3.89 min
  Adverse reaction: Convulsions: 0
  Adverse reaction: Cough, broken-winded: 2
  Adverse reaction: Euphoria: 3
  Adverse reaction: Four limbs rigidity: 0
  Adverse reaction: Red urine: 8
  Adverse reaction: Slower breathing, Tetany convulsion: 1
  Adverse reaction: Systemic stiffness, Convulsions, Opisthotonus: 0
  Adverse reaction: Tongue stretching: 2
  Adverse reaction: Tremor: 8
[2]; unit min
  Onset time: <1 min
[3]; [8]
  ED50: 2 to 6 mg/kg
[3]
  Approximate therapeutic index: >6.6

## CCOC(OC)(OCC)C(=O)c1cncn1[C@H](C)c1ccccc1 [Compound D79]
[1]
  Minimal lethal dose: >2.7 mg/kg
[2]
  Righting reflex duration: 1.75 ± 0.76 min
  Sedation duration: 5.84 ± 1.46 min
  Adverse reaction: Convulsions: 6
  Adverse reaction: Cough, broken-winded: 0
  Adverse reaction: Euphoria: 0
  Adverse reaction: Four limbs rigidity: 0
  Adverse reaction: Red urine: 8
  Adverse reaction: Slower breathing, Tetany convulsion: 0
  Adverse reaction: Systemic stiffness, Convulsions, Opisthotonus: 0
  Adverse reaction: Tongue stretching: 0
  Adverse reaction: Tremor: 1
[2]; unit s
  Onset time: <0.5 min
[3]; [8]
  ED50: 0.5 to 1 mg/kg
[3]
  Approximate therapeutic index: >6.4

## CCOC(OCC)C(=O)c1cncn1[C@H](C)c1ccccc1 [Compound D88]
[1]
  Minimal lethal dose: >2.6 mg/kg
[2]
  Righting reflex duration: 1.86 ± 1.02 min
  Sedation duration: 7.08 ± 1.06 min
  Adverse reaction: Convulsions: 0
  Adverse reaction: Cough, broken-winded: 0
  Adverse reaction: Euphoria: 0
  Adverse reaction: Four limbs rigidity: 1
  Adverse reaction: Red urine: 8
  Adverse reaction: Slower breathing, Tetany convulsion: 0
  Adverse reaction: Systemic stiffness, Convulsions, Opisthotonus: 7
  Adverse reaction: Tongue stretching: 1
  Adverse reaction: Tremor: 1
[2]; unit s
  Onset time: <0.5 min
[3]; [8]
  ED50: 1 to 2 mg/kg
[3]
  Approximate therapeutic index: >10.3

## C[C@H](c1ccccc1)n1cnc(F)c1C(=O)COCCC1CCC1 [Compound C74]
[4]; 2ED50, tail vein, rats, n=8
  Righting reflex duration: 1.37 ± 0.63 min
  Sedation duration: 5.68 ± 1.10 min
[4]; 2ED50, tail vein, rats, n=8, unit min
  Onset time: <1 min
[4]; [9]
  Adverse reaction: Convulsions: 0
  Adverse reaction: Cough, broken-winded: 0
  Adverse reaction: Euphoria: 0
  Adverse reaction: Red urine: 8
  Adverse reaction: Slower breathing, Tetany convulsion: 0
  Adverse reaction: Systemic stiffness, Convulsions, Opisthotonus: 0
  Adverse reaction: Tongue stretching: 0
  Adverse reaction: Tremor: 1
  Adverse reaction: the four limbs rigidity: 0
[5]; Rattus norvegicus, LORR, up and down method, tail vein, class symbols, read-out: ED50
  ED50: 0.04 to 0.5 mg/kg
[5]
  Approximate therapeutic index: >42.9
[6]
  Minimal lethal dose: >6.0 mg/kg
[7]; [10]
  After the infusion is stopped: Righting reflex recovery time: 13 to 18 min
  Recovery time after stopping infusion: 18 to 24 min
[7]; [11]
  Types and incidence of adverse reactions: Red urine: 6/6
  Types and incidence of adverse reactions: Tongue stretching: Tongue stretching(4/6)
  Types and incidence of adverse reactions: Tremor: 4/6
[7]; continuous tail vein infusion at 2 times the MIR, SD rats
  Sedation onset time: <5 min
